Data as given in patent US4902791A, “Nitrosourea derivatives, process for their preparation and medicaments containing them” (Sanofi S.A., priority 1983, dated 1990).

Key:
[1] = toxicological study, lethal doses (Table IA); details: mouse, in vivo
Description: The results relating to toxicology are brought together in Table IA below:

L1210 U.S.A. strain = test: antitumor activity on leukemia L1210 U.S.A., compounds of formula IA, I.P.; assay type: in vivo, mouse
Method: On the day of the graft (by convention day 0=DO) an inoculum of 1×10^5 tumor cells in a volume of 0.2 ml is administered to each mouse by the intraperitoneal route (I.P.).
This inoculum is prepared by diluting ascites fluid taken from the peritoneum of a donor female mouse in NCTC 109 medium (Eurobio Laboratories Paris, France), counting of the cells in a MALASSEZ cell under a microscope and adjustment of the concentration to 5×10^5cells per ml.
After the tumor graft has been made, the mice are distributed at random in cages of 5 animals. Subsequently, these cages containing 5 mice are themselves distributed at random into a control group (control) and groups treated with the products of the invention.
(§1) The doses of the products of the invention used in the different experiments are expressed in milligrams per kilogram of body weight.
(§2) The products to be injected were dissolved in isotonic sodium chloride solution.
Two protocols for treatment were used in the different experiments:
(§3) or 3 I.P. injections on D1, D5, D9.
(§4) In each experiment the animals of the control group received 1 or more injections, depending on the experimental protocol used, by the same route (I.P. or I.V.) of the same volume (0.2 ml/20 g) of the vehicle not containing the active principle (isotonic sodium chloride solution).
(§5) the number and percentage of the total of the mice surviving to D60,
(§6) the T/C×100 for treated groups.
(§7) T representing the mean survival time of the mice in the treated group
(§8) C representing the mean survival time of the mice in the control group (control).

melanoma B16 = test: antitumor activity on melanoma B16, compounds of formula IA, I.P.; assay type: in vivo, mouse; details: B6 D2 F1, I.P. D1, D5, D9, 3×10 mg/kg
Method: The experiments were always carried out on SPF female mice B6 D2 F1/JIco (first generation hybrids between the lines C5BL/6 and DBA/2).
On the day of the graft (Day 0) an inoculum of 2×10^6 tumor cells in a volume of 0.5 ml is administered to each mouse by the intraperitoneal route (I.P.). This inoculum is prepared from a sub-cutaneous tumor excised from a donor female mouse. After excision the tumor is fragmented by means of a pair of scissors in the NCTC 109 medium. After filtration through sterile gauze in order to remove large cellular fragments, the homogeneous cell suspension obtained is counted by means of a MALASSEZ cell and diluted to the desired concentration (4×10^6 tumor cells per ml) by dilution with the NCTC 109 medium.
This was performed in the manner described previously for the leukemia L1210.
as §1, §2, §3, §4, §5, §6, §7, §8

[2] = B6 D2 F1, I.P. D1, D5, D9, 3×1.25 mg/kg
[3] = B6 D2 F1, I.P. D1, D5, D9, 3×5 mg/kg

| Structure (SMILES) | LD0 [1] | Number of survivors at D60 (L1210 U.S.A. strain; [2]) | T/C (L1210 U.S.A. strain; [2]) | Number of survivors at D60 (L1210 U.S.A. strain; [3]) | T/C (L1210 U.S.A. strain; [3]) | Number of survivors at D60 (melanoma B16) | T/C (melanoma B16) | LD90 [1] |
| --- | --- | --- | --- | --- | --- | --- | --- | --- |
| CO[C@@H]1O[C@H](COC(=O)c2ccccc2)C[C@H](NC(=O)N(CCCl)N=O)[C@H]1O [CI. 1674, methyl 3-[3-(2-chloroethyl)-3 nitrosoureido] 6-benzoyl 3,4-dideoxy-β-D-xylo-hexopyranoside] | ≥ 40 mg/kg | 0/10 | 111 | 0/10 | 130 |  |  |  |
| CO[C@H]1O[C@H](CO)[C@H](Cl)[C@H](NC(=O)N(CCCl)N=O)[C@H]1O [CI. 1676, methyl 4-chloro 3-[3-(2-chloro-ethyl) 3-nitrosoureido] 3,4-dideoxy-α-D-galacto-hexopyranoside] | ≥ 20 mg/kg | 0/10 | 136 | 0/10 | 188 | 3/10 | 202 |  |
| CO[C@H]1O[C@H](CO)C[C@H](NC(=O)N(CCCl)N=O)[C@H]1O [CI. 1677, methyl 3-[3-(2-chloroethyl) 3-nitroso-ureido] 3,4-dideoxy-α-D-xylo-hexopyranoside] |  | 0/10 | 157 | 6/10 | > 600 | 7/10 | 257 | ≤ 20 mg/kg |
